# Data as given in ChEMBL document CHEMBL3132786, “Cytotoxic, immunomodulatory, antimycotic, and antiviral activities of semisynthetic 14-hydroxyabietane derivatives and triptoquinone C-4 epimers” (Medchemcomm, 2013).
# The source made the active and inactive calls. The rule behind the calls is not given here.
# How the values were obtained:
# [1] = Antiproliferative activity against PHA-stimulated human CD4+ T cells at 7 to 14 ug/ml after 72 hrs by CFSE fluorescence staining-based flow cytometry; details: t-cell
# Aspergillus fumigatus [2] = experiment: Antifungal activity against Aspergillus fumigatus up to 100 ug/ml after 48 hrs by broth dilution method; assay type: functional, organism-based
# Aspergillus flavus = experiment: Antifungal activity against Aspergillus flavus up to 100 ug/ml after 48 hrs by broth dilution method; assay type: functional, organism-based
# Vero = experiment: Cytotoxicity against african green monkey Vero cells after 48 hrs by MTT assay; assay type: cell-based; details: chlorocebus sabaeus
# Jurkat [3] = experiment: Cell cycle arrest in human Jurkat cells assessed as decrease in G0/G1 phase at 14 ug/ml after 15 to 24 hrs by flow cytometry; assay type: functional, cell-based
# PBMC [4] = experiment: Effect on membrane integrity in human PBMCs; assay type: ADME, cell-based
# Monocyte [5] = experiment: Reduction in IL-10 production in human monocytes at 5 to 15 ug/ml after 24 hrs by cytometric bead array method; assay type: functional, cell-based
# Jurkat [6] = experiment: Reduction in membrane potential in human Jurkat cells at 7 ug/ml after 15 to 24 hrs using DiOC6(3) by flow cytometry; assay type: functional, cell-based
# Jurkat [7] = experiment: Cell cycle arrest in human Jurkat cells assessed as accumulation at G2/M phase at 14 ug/ml after 15 hrs by flow cytometry; assay type: functional
# Monocyte [8] = experiment: Reduction in IL-1beta production in human monocytes at 5 to 15 ug/ml after 24 hrs by cytometric bead array method; assay type: functional, cell-based
# Jurkat [9] = experiment: Reduction in membrane potential in human Jurkat cells at 14 ug/ml after 15 hrs using DiOC6(3) by flow cytometry; assay type: functional
# PBMC [10] = experiment: Induction of apoptosis in human PBMCs assessed as apoptotic cells at 14 ug/ml after 24 hrs by annexin V/PI-based flow cytometry; assay type: cell-based
# Jurkat [11] = experiment: Cell cycle arrest in human Jurkat cells assessed as hypoploidy at 14 ug/ml after 15 hrs by flow cytometry; assay type: functional
# PBMC [12] = experiment: Induction of apoptosis in human PBMCs assessed as apoptotic cells at 14 ug/ml after 15 hrs by annexin V/PI-based flow cytometry; assay type: cell-based
# Jurkat [13] = experiment: Reduction in membrane potential in human Jurkat cells at 14 ug/ml after 24 hrs using DiOC6(3) by flow cytometry; assay type: functional
# Jurkat [14] = experiment: Induction of apoptosis in human Jurkat cells assessed as DNA damage at 14 ug/ml after 24 hrs by TUNEL assay; assay type: functional
# PBMC [15] = experiment: Antiproliferative activity against PHA-stimulated human PBMCs assessed as CD69 expression at 1 to 14 ug/ml treated post PHA stimulation measured after 12 hrs by flow cytometry; assay type: cell-based
# PBMC [16] = experiment: Antiproliferative activity against PHA-stimulated human PBMCs assessed as CD69 expression pretreated at 1 to 14 ug/ml before PHA stimulation measured after 12 hrs by flow cytometry; assay type: cell-based
# PBMC [17] = experiment: Antiproliferative activity against human PBMCs at 7 to 14 ug/ml after 48 hrs by CFSE fluorescence staining-based flow cytometry; assay type: cell-based
# PBMC [18] = experiment: Reduction in membrane potential in human PBMCs at 7 to 14 ug/ml after 15 to 24 hrs using DiOC6(3) by flow cytometry; assay type: ADME, cell-based
# Monocyte [19] = experiment: Reduction in LPS-induced IL-10 production in human monocytes at 5 to 15 ug/ml pretreated before LPS addition after 24 hrs by cytometric bead array method; assay type: functional, cell-based
# PBMC [20] = experiment: Effect on cell cycle distribution in human PBMCs assessed as hypoploidy at 14 ug/ml after 15 to 24 hrs by flow cytometry; assay type: ADME, cell-based
# Jurkat [21] = experiment: Cell cycle arrest in human Jurkat cells assessed as hypoploidy at 14 ug/ml after 24 hrs by flow cytometry; assay type: functional
# Monocyte [22] = experiment: Reduction in LPS-induced IL-1beta production in human monocytes at 5 to 15 ug/ml pretreated before LPS addition after 24 hrs by cytometric bead array method; assay type: functional, cell-based
# Jurkat [23] = experiment: Induction of apoptosis in human Jurkat cells assessed as DNA damage at 14 ug/ml after 15 hrs by TUNEL assay; assay type: functional
# HeLa = experiment: Cytotoxicity against human HeLa cells after 48 hrs by MTT assay; assay type: functional, cell-based
# Jurkat [24] = experiment: Induction of apoptosis in human Jurkat cells assessed as apoptotic cells at 14 ug/ml after 15 hrs by annexin V/PI-based flow cytometry; assay type: functional
# Jurkat [25] = experiment: Cytotoxicity against human Jurkat cells after 48 hrs by MTT assay; assay type: functional, cell-based
# Jurkat [26] = experiment: Induction of apoptosis in human Jurkat cells assessed as apoptotic cells at 14 ug/ml after 24 hrs by annexin V/PI-based flow cytometry; assay type: functional
# [27] = Antiproliferative activity against PHA-stimulated human CD8+ T cells at 7 to 14 ug/ml after 72 hrs by CFSE fluorescence staining-based flow cytometry; details: t-cell
# Monocyte [28] = experiment: Reduction in LPS-induced TNF-alpha production in human monocytes at 5 to 15 ug/ml pretreated before LPS addition after 24 hrs by cytometric bead array method; assay type: functional, cell-based
# PBMC [29] = experiment: Effect on cell cycle distribution in human PBMCs at 14 ug/ml after 15 to 24 hrs by flow cytometry; assay type: ADME, cell-based
# Jurkat [30] = experiment: Cell cycle arrest in human Jurkat cells assessed as accumulation at G2/M phase at 14 ug/ml after 24 hrs by flow cytometry; assay type: functional
# [31] = Selectivity ratio of IC50 for african green monkey Vero cells to IC50 for human Jurkat cells; assay type: ADME, cell-based; details: Vero cells versus Jurkat cells, read-out: Ratio IC50
# Monocyte [32] = experiment: Inhibition of differentiation of LPS-stimulated human monocytes assessed as reduction in expression of HLA-DR at 5 to 15 ug/ml after 120 hrs by fluorescence assay; assay type: functional, cell-based
# Aspergillus terreus [33] = experiment: Antifungal activity against Aspergillus terreus up to 100 ug/ml after 48 hrs by broth dilution method; assay type: functional, organism-based
# Jurkat [34] = experiment: Effect on membrane integrity in human Jurkat cells; assay type: functional, cell-based
# Monocyte [35] = experiment: Reduction in TNF-alpha production in human monocytes at 5 to 15 ug/ml after 24 hrs by cytometric bead array method; assay type: functional, cell-based
# Human alphaherpesvirus 1 = experiment: Antiviral activity against Herpes simplex virus type 1 infected in HeLa cells assessed as reduction in viral replication after 48 hrs; assay type: functional, organism-based
# Aspergillus niger [36] = experiment: Antifungal activity against Aspergillus niger up to 100 ug/ml after 48 hrs by broth dilution method; assay type: functional, organism-based
# [37] = Selectivity ratio of IC50 for african green monkey Vero cells to IC50 for human HeLa cells; assay type: ADME, cell-based; details: Vero cells versus HeLa cells, read-out: Ratio IC50
# PBMC [38] = experiment: Antiproliferative activity against human PBMCs at 7 ug/ml after 48 hrs by CFSE fluorescence staining-based flow cytometry; assay type: cell-based
# [39] = Antiproliferative activity against PHA-stimulated human CD8+ T cells at 14 ug/ml after 72 hrs by CFSE fluorescence staining-based flow cytometry; details: t-cell
# PBMC [40] = experiment: Antiproliferative activity against human PBMCs at 14 ug/ml after 48 hrs by CFSE fluorescence staining-based flow cytometry; assay type: cell-based
# PBMC [41] = experiment: Reduction in membrane potential in human PBMCs at 14 ug/ml after 24 hrs using DiOC6(3) by flow cytometry; assay type: ADME, cell-based; parameters: scale not given: the % may be the effect or the level left
# [42] = Antiproliferative activity against PHA-stimulated human CD4+ T cells at 14 ug/ml after 72 hrs by CFSE fluorescence staining-based flow cytometry; details: t-cell
# PBMC [43] = experiment: Reduction in membrane potential in human PBMCs at 14 ug/ml after 15 hrs using DiOC6(3) by flow cytometry; assay type: ADME, cell-based; parameters: scale not given: the % may be the effect or the level left
# Aspergillus niger [44] = experiment: Antifungal activity against Aspergillus niger after 48 hrs by broth dilution method; assay type: functional
# Aspergillus terreus [45] = experiment: Antifungal activity against Aspergillus terreus after 48 hrs by broth dilution method; assay type: functional
# Aspergillus fumigatus [46] = experiment: Antifungal activity against Aspergillus fumigatus after 48 hrs by broth dilution method; assay type: functional
smiles,measurement,setting,value
CC(C)C1=CC(=O)C2=C(CC[C@H]3[C@](C)(C(=O)O)CCC[C@]23C)C1=O,Activity,[1],Non-toxic
same,Activity,Aspergillus fumigatus [2],inactive
same,Activity,Aspergillus flavus,inactive
same,inhibition (INH),Vero,Dose-dependent effect
same,Activity,Jurkat [3],inactive
same,Activity,PBMC [4],Non-toxic
same,Activity,Monocyte [5],inactive
same,Activity,Jurkat [6],inactive
same,Activity,Jurkat [7],inactive
same,Activity,Monocyte [8],inactive
same,Activity,Jurkat [9],inactive
same,Activity,PBMC [10],Toxic
same,Activity,Jurkat [11],inactive
same,Activity,PBMC [12],Toxic
same,Activity,Jurkat [13],inactive
same,Activity,Jurkat [14],inactive
same,Activity,PBMC [15],Non-toxic
same,Activity,PBMC [16],Non-toxic
same,Activity,PBMC [17],Non-toxic
same,Activity,PBMC [18],Non-toxic
same,Activity,Monocyte [19],Active
same,Activity,PBMC [20],Non-toxic
same,Activity,Jurkat [21],inactive
same,Activity,Monocyte [22],Active
same,Activity,Jurkat [23],inactive
same,inhibition,HeLa,Dose-dependent effect
same,Activity,Jurkat [24],Active
same,inhibition,Jurkat [25],Dose-dependent effect
same,Activity,Jurkat [26],Active
same,Activity,[27],Non-toxic
same,Activity,Monocyte [28],Active
same,Activity,PBMC [29],Non-toxic
same,Activity,Jurkat [30],inactive
same,selectivity ratio,[31],8.96
same,Activity,Monocyte [32],Active
same,Activity,Aspergillus terreus [33],inactive
same,Activity,Jurkat [34],inactive
same,Activity,Monocyte [35],inactive
same,Activity,Human alphaherpesvirus 1,inactive
same,Activity,Aspergillus niger [36],inactive
same,selectivity ratio,[37],4.74
CC(C)C1=CC(=O)C2=C(CC[C@H]3[C@](C)(CO)CCC[C@]23C)C1=O,Activity,[1],Non-toxic
same,Activity,Aspergillus fumigatus [2],inactive
same,Activity,Aspergillus flavus,inactive
same,inhibition (INH),Vero,Dose-dependent effect
same,Activity,PBMC [38],77%
same,Activity,Jurkat [3],Active
same,Activity,PBMC [4],Non-toxic
same,Activity,Monocyte [5],inactive
same,Activity,Jurkat [6],inactive
same,Activity,Jurkat [7],13%
same,Activity,Monocyte [8],inactive
same,Activity,Jurkat [9],15%
same,Activity,PBMC [10],90%
same,Activity,Jurkat [11],12%
same,Activity,PBMC [12],75%
same,Activity,[39],77%
same,Activity,Jurkat [13],25%
same,Activity,Jurkat [14],35%
same,Activity,PBMC [15],Non-toxic
same,Activity,PBMC [16],Non-toxic
same,Activity,PBMC [40],82%
same,Activity,Monocyte [19],Active
same,Activity,PBMC [20],Non-toxic
same,Activity,PBMC [41],90%
same,Activity,Jurkat [21],35%
same,Activity,Monocyte [22],Active
same,Activity,Jurkat [23],10%
same,inhibition,HeLa,Dose-dependent effect
same,Activity,Jurkat [24],26%
same,inhibition,Jurkat [25],Dose-dependent effect
same,Activity,Jurkat [26],86%
same,Activity,[27],Non-toxic
same,Activity,Monocyte [28],Active
same,Activity,PBMC [29],Non-toxic
same,Activity,Jurkat [30],15%
same,selectivity ratio,[31],5.46
same,Activity,Monocyte [32],Active
same,Activity,Aspergillus terreus [33],inactive
same,Activity,Jurkat [34],inactive
same,Activity,Monocyte [35],inactive
same,Activity,Human alphaherpesvirus 1,inactive
same,Activity,[42],88%
same,Activity,Aspergillus niger [36],inactive
same,selectivity ratio,[37],1
same,Activity,PBMC [43],20%
COC(=O)[C@]1(C)CCC[C@]2(C)C3=C(CC[C@@H]12)C(=O)C(C(C)C)=CC3=O,Activity,Aspergillus fumigatus [2],inactive
same,Activity,Aspergillus flavus,inactive
same,inhibition (INH),Vero,Dose-dependent effect
same,inhibition,HeLa,Dose-dependent effect
same,inhibition,Jurkat [25],Dose-dependent effect
same,selectivity ratio,[31],2.34
same,Activity,Aspergillus terreus [33],inactive
same,Activity,Human alphaherpesvirus 1,inactive
same,Activity,Aspergillus niger [36],inactive
same,selectivity ratio,[37],1.23
CC(C)c1ccc2c(c1O)CC[C@H]1[C@](C)(C(=O)O)CCC[C@]21C,Activity,Aspergillus fumigatus [2],inactive
same,Activity,Aspergillus flavus,inactive
same,inhibition (INH),Vero,Dose-dependent effect
same,inhibition,HeLa,Dose-dependent effect
same,inhibition,Jurkat [25],Dose-dependent effect
same,selectivity ratio,[31],3.09
same,Activity,Aspergillus terreus [33],inactive
same,Activity,Human alphaherpesvirus 1,inactive
same,Activity,Aspergillus niger [36],inactive
same,selectivity ratio,[37],0.77
COC(=O)[C@]1(C)CCC[C@]2(C)c3ccc(C(C)C)c(O)c3CC[C@@H]12,Activity,Aspergillus fumigatus [2],inactive
same,Activity,Aspergillus flavus,inactive
same,inhibition (INH),Vero,Dose-dependent effect
same,inhibition,HeLa,Dose-dependent effect
same,inhibition,Jurkat [25],Dose-dependent effect
same,selectivity ratio,[31],2.59
same,Activity,Aspergillus terreus [33],inactive
same,Activity,Human alphaherpesvirus 1,inactive
same,Activity,Aspergillus niger [36],inactive
same,selectivity ratio,[37],1.9
CC(C)c1ccc2c(c1O)CC[C@H]1[C@](C)(CO)CCC[C@]21C,Activity,Aspergillus fumigatus [2],inactive
same,Activity,Aspergillus flavus,inactive
same,MIC,Aspergillus niger [44],50 µg/mL
same,inhibition (INH),Vero,Dose-dependent effect
same,MIC,Aspergillus terreus [45],25 µg/mL
same,inhibition,HeLa,Dose-dependent effect
same,inhibition,Jurkat [25],Dose-dependent effect
same,selectivity ratio,[31],2.3
same,Activity,Aspergillus terreus [33],inactive
same,Activity,Human alphaherpesvirus 1,inactive
same,MIC,Aspergillus fumigatus [46],25 µg/mL
same,Activity,Aspergillus niger [36],inactive
same,selectivity ratio,[37],0.71
